Where two headings read alike, the source gives them in different places. Where a SMILES comes first, the peptide text is derived from it.
Columns and labels:
[1] = Stability of sweeteners in FLEET PHOSPHO-SODA (Example 1)
Procedure: While it is possible to add the sweetener and/or flavoring a short time before consumption of a phosphate salt bowel cleanser and retain at least a portion of the palatability benefits, one goal of the present bowel cleansing compositions is to provide stable liquids having increased palatability. Thus, numerous sweeteners and flavorings were tested for stability in phosphate salt bowel cleanser.
Sucrose, Saccharin, Sucralose, Aspartame, Ace-K, Thaumatin (Talin), Neohesperidine Dihydrochalcone (NHDC), and Trehalose were tested for stability in FLEET® PHOSPHO-SODA®.

[2] = Taste tests to determine equivalent sweetness of sweeteners in a salty liquid (Example 4); format: in vivo, human
Procedure: Before a preferred sweetener for use in salty liquids could be determined, the amount of each sweetener required to provide an equivalent sweetness was determined. Multiple taste tests were performed comparing various concentrations of Sucralose, Ace-K, the 5:1 Ace-K/Sucralose blend, Saccharin, and sucrose in a salty liquid to determine an equivalent […].

[3] = Sweetener preference in diluted phosphate salt bowel cleanser, forty test subjects (Example 5); format: in vivo, human; settings: scale 1 to 4, 60 mL phosphate salt bowel cleanser in 355 mL water
Procedure: Each solution was prepared by diluting 60 mL of the phosphate salt bowel cleanser from Example 2 in 355 mL of water and using either 0.05% Ace-K, 0.05% Sucralose, 0.08% saccharin, 0.05% of a 5:1 Ace-K/Sucralose blend, or 15% sucrose as the sweetener.

[4] = Sweetener concentration preference in diluted phosphate salt bowel cleanser, about 35 testers (Example 10); format: in vivo, human; settings: for preferred sweetener concentration to decrease saltiness: in the phosphate salt bowel cleanser; for Average rating: scale 1 to 4, 4 highly preferred, phosphate salt bowel cleanser in water
Procedure: To confirm the correlation of FIG. 1 in a bowel cleanser with multiple sweeteners, approximately 35 testers were asked to select the most palatable solution from five possibilities. Each of the five solutions included 60 mL of the phosphate salt bowel cleanser from Example 2 in 355 mL of water. This solution has an equivalent saltiness to the 2% NaCI/water solution of Example 9. The first of the five solutions lacked any sweetener, while an increasing concentration of sweetener was added to the remaining four. Tests were performed using Sucralose, the 5:1 Ace-K/Sucralose blend, Ace-K, or Saccharin as the sweetener.
Tables 8, 9, 10, and 11, below, present the average test data for each sweetener, respectively.
The sweetener concentration for each data point corresponds to those in Tables 8 through 11, above, with higher values on the X-axis corresponding to higher sweetener concentrations.

[5] = considered to be; cited from earlier work

CC1=CC(=O)NS(=O)(=O)O1 [Ace-K, acesulfame potassium]
stability in FLEET PHOSPHO-SODA [1]: acceptable stability | sweetener concentration providing an equivalent sweetness [2]: 0.05% | average preference value ([3]; 0.05% sweetener): 2.45 | preferred sweetener concentration to decrease saltiness [4]: 0.05% | Average rating ([4]; Ace-K 0.025 % (w/w)): 1.88 | Average rating ([4]; Ace-K 0.05 % (w/w)): 2.63 | Average rating ([4]; Ace-K 0.1 % (w/w)): 2.16 | Average rating ([4]; Ace-K 0.2 % (w/w)): 2.16 | sweetness relative to sucrose / sugar [5]: about 200 times

COC(=O)[C@H](Cc1ccccc1)NC(=O)[C@@H](N)CC(=O)O [Aspartame] (HELM PEPTIDE1{D.F.[CO[*:1]]}$$$$V2.0)
stability in FLEET PHOSPHO-SODA [1]: effectiveness diminished over time

COc1ccc(CCC(=O)c2c(O)cc(O[C@@H]3O[C@H](CO)[C@@H](O)[C@H](O)[C@H]3O[C@@H]3O[C@@H](C)[C@H](O)[C@@H](O)[C@H]3O)cc2O)cc1O [Neohesperidine Dihydrochalcone (NHDC), Neohesperidine Dihydrochalcone]
stability in FLEET PHOSPHO-SODA ([1]; sweetener in phosphate salt laxative solution): effectiveness diminished over time

O=C1NS(=O)(=O)c2ccccc21 [Saccharin]
stability in FLEET PHOSPHO-SODA [1]: acceptable stability | sweetener concentration providing an equivalent sweetness [2]: 0.083% | average preference value ([3]; 0.08% sweetener): 2.5 | preferred sweetener concentration to decrease saltiness [4]: about 0.0832% | Average rating ([4]; Saccharin 0.0208 % (w/w)): 2.29 | Average rating ([4]; Saccharin 0.0416 % (w/w)): 2.47 | Average rating ([4]; Saccharin 0.0832 % (w/w)): 2.47 | Average rating ([4]; Saccharin 0.1664 % (w/w)): 1.97 | sweetness relative to sucrose / sugar [5]: about 200 times

OC[C@H]1O[C@@](CO)(O[C@H]2O[C@H](CO)[C@@H](O)[C@H](O)[C@H]2O)[C@@H](O)[C@@H]1O [Sucrose, reference compound]
stability in FLEET PHOSPHO-SODA [1]: effectiveness diminished over time | sweetener concentration providing an equivalent sweetness [2]: 15% | average preference value ([3]; 15% sweetener): 3.3

OC[C@H]1O[C@H](O[C@H]2O[C@H](CO)[C@@H](O)[C@H](O)[C@H]2O)[C@H](O)[C@@H](O)[C@@H]1O [Trehalose]
stability in FLEET PHOSPHO-SODA [1]: effectiveness diminished over time

Thaumatin [Thaumatin (Talin)]
stability in FLEET PHOSPHO-SODA [1]: effectiveness diminished over time

Source: patent US20070082061A1, “REDUCTION OF SALTINESS WITH SWEETENERS” (priority 2005, published 2007)
